In patent US20260049106A1, “PEPTIDE COMPOSITIONS AND METHODS OF USE” (ONL Therapeutics, Inc., priority 2022, published 2026):
Ends that are not written are not given here.

Experiments:
[1] = tested on: Jurkat cells; assay: Cell viability preservation in vitro: cell confluence of Jurkat cells after 24-hour incubation with or without recombinant His-tagged FasL and anti-His antibody; format: cell-based; conditions: Incucyte / Vi-CELL
Description: Compounds (oligopeptides) of the present disclosure were assayed for their ability to effect cell confluence following a 24-hour incubation. Jurkat cells were incubated for 24 hours with varying concentrations of compound (i.e., 200, 66.7, 22.2, 7.4, 2.5, 0.8, 0.3, and 0.1) and with or without recombinant His-tagged FasL along with an anti-His antibody. After the 24-hour incubation, cell confluence was quantified using an S3 Incucyte Imaging System (Sartorius) and a Vi-CELL XR Cell Viability Analyzer (Beckman Coulter) and compared to controls (cells incubated in the absence of compound and cells incubated with a known Fas inhibitor).

[2] = tested on: photoreceptor cells; conditions: cell culture experiments; separation of the retinal and retinal pigment epithelium; cited from earlier work
[3] = apparently clear solution in 20 mM citrate buffer pH 2.8, in vitro and in vivo assays; cited from earlier work

Substance | Activity (lowest concentration that prevented loss of cell confluency) [1] | photoreceptor protection [2] | loss in activity [3]
NH2-HKIYLGAVNYIY-C(O)NH2 (H-HKIYLGAVNYIY-NH2) [Compound 11] | B (cell protection at 1.0 < x < 10.0 μM) |  | 
NH2-HHIAAGAVNYIY-C(O)NH2 (H-HHIAAGAVNYIY-NH2) [Compound 6] | B (cell protection at 1.0 < x < 10.0 μM) |  | 
NH2-HHIYLGSSSSNYIY-C(O)NH2 (H-HHIYLGSSSSNYIY-NH2) [Compound 8] | B (cell protection at 1.0 < x < 10.0 μM) |  | 
H^60HIYLGAVNYIY^71 (HHIYLGAVNYIY) [Met-12] |  | photoreceptor protective | at least a fivefold loss in activity
NH2-HHIYLGGGGGNYIY-C(O)NH2 (H-HHIYLGGGGGNYIY-NH2) [Compound 7] | B (cell protection at 1.0 < x < 10.0 μM) |  | 
NH2-KKIYLGAVNYIY-C(O)NH2 (H-KKIYLGAVNYIY-NH2) [Compound 9] | B (cell protection at 1.0 < x < 10.0 μM) |  | 
NH2-KHIYLGAVNYIY-C(O)NH2 (H-KHIYLGAVNYIY-NH2) [Compound 10] | A (cell protection at x < 1.0 μM) |  | 
HHIYLGAVNYIY-NH2 [Compound A, reference compound] | A (cell protection at x < 1.0 μM) |  | 
